Data as given in US7015228B2, “4-amino-2-(2-pyridyl)pyrimidines as microbicidal active substances” (Ciba Specialty Chemicals Corporation, priority 2001, dated 2006).
Values after ≈ are worked out from the molar mass of the structure shown.

Experiments:
Assay type in all cases: cell-based
[1] = tested on: Staphylococcus hominis DMS 20328; assay: Minimum inhibitory concentration (MIC) in microtitre plates; settings: Table 7; 48 hours at 37° C.; MIC = ≦20% growth compared to control
Method in brief: (§1)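 Compounds in DMSO, 1:2 dilution series; bacteria at 1–5×10^6 CFU/ml diluted 1:100 in CASO broth. Incubation 48 h at 37° C, growth read as OD 620 nm. MIC is the lowest concentration giving ≤20% growth relative to control; duplicates.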

[2] = tested on: Escherichia coli NCTC 8196; assay: as above; settings: for Minimum inhibitory concentration (MIC) E. coli: Table 7, 48 hours at 37° C., MIC = ≦20% growth compared to control; for Minimum inhibitory concentration (MIC) E. coli NCTC 8196: Table 8, * = significant inhibition of growth, but not complete inhibition
Method in brief: as §1

[3] = tested on: Candida albicans ATCC 10231; assay: Minimum inhibitory concentration (MIC), further microorganisms; settings: Table 8; * = significant inhibition of growth, but not complete inhibition
Method in brief: (§2)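 Organisms at 1–5×10^6 CFU/ml were diluted 1:100 into CASO broth (bacteria, yeast) or Sabouraud 2% glucose broth (mould) over 1:2 DMSO dilution series of compound. Bacteria and yeast were incubated 48 h at 37 °C and mould 5 days at 28 °C. MIC is the lowest concentration giving ≤20% growth versus control by OD620, in duplicate.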

[4] = tested on: Salmonella choleraesuis ATCC 10708; assay: as above; settings: Table 8
Method in brief: as §2

[5] = tested on: Enterococcus hirae ATCC 10541; assay: as above; settings: Table 8; * = significant inhibition of growth, but not complete inhibition
Method in brief: as §2

[6] = tested on: Aspergillus niger ATCC 6275; assay: as above; settings: Table 8; * = significant inhibition of growth, but not complete inhibition
Method in brief: as §2

[7] = tested on: Trichophyton mentagrophytes ATCC 9533; assay: as above; settings: Table 8; * = significant inhibition of growth, but not complete inhibition
Method in brief: as §2

[8] = tested on: Pseudomonas aeruginosa CIP A-22; assay: as above; settings: Table 8
Method in brief: as §2

[9] = tested on: Klebsiella pneumonia ATCC 4352; assay: as above; settings: Table 8; * = significant inhibition of growth, but not complete inhibition
Method in brief: as §2

[10] = tested on: S. epidermidis ATCC 12228; assay: as above; settings: Table 8; * = significant inhibition of growth, but not complete inhibition
Method in brief: as §2

[11] = tested on: Epidermophyton floccosum DSM 10709; assay: as above; settings: Table 8; * = significant inhibition of growth, but not complete inhibition
Method in brief: as §2

[12] = tested on: Micrococcus luteus ATCC 9341; assay: as above; settings: Table 8; * = significant inhibition of growth, but not complete inhibition
Method in brief: as §2

[13] = tested on: Staphylococcus aureus ATCC 9144; assay: as above; settings: Table 8; * = significant inhibition of growth, but not complete inhibition
Method in brief: as §2

Minimum inhibitory concentration (MIC) S. hominis [1]	Minimum inhibitory concentration (MIC) E. coli [2]	Minimum inhibitory concentration (MIC) E. coli NCTC 8196 [2]	Minimum inhibitory concentration (MIC) Candida albicans ATCC 10231 [3]	Minimum inhibitory concentration (MIC) Enterococcus hirae ATCC 10541 [5]	Minimum inhibitory concentration (MIC) Aspergillus niger ATCC 6275 [6]	Minimum inhibitory concentration (MIC) Trichophyton mentagrophytes ATCC 9533 [7]	Minimum inhibitory concentration (MIC) Pseudomonas aeruginosa CIP A-22 [8]	Minimum inhibitory concentration (MIC) Klebsiella pneumonia ATCC 4352 [9]	Minimum inhibitory concentration (MIC) S. epidermidis ATCC 12228 [10]	Minimum inhibitory concentration (MIC) Epidermophyton floccosum DSM 10709 [11]	Minimum inhibitory concentration (MIC) Micrococcus luteus ATCC 9341 [12]	Minimum inhibitory concentration (MIC) Staphylococcus aureus ATCC 9144 [13]	Compound	Minimum inhibitory concentration (MIC) Salmonella choleraesuis ATCC 10708 [4]
3.75 µg/mL (≈ 9.45 µM)	120 µg/mL (≈ 303 µM)	>60 µg/mL	>60 µg/mL	7.5 µg/mL (≈ 18.9 µM)	60 µg/mL (≈ 151 µM)	>60 µg/mL	>60 µg/mL	>60 µg/mL	*7.5 μg/mL	>60 µg/mL	<3.75 µg/mL	15 µg/mL (≈ 37.8 µM)	CCCCCCCCCCCCNc1cc(C(C)(C)C)nc(-c2ccccn2)n1 [compound 60]	>60 µg/mL
30 µg/mL (≈ 84.4 µM)	120 µg/mL (≈ 338 µM)	>60 µg/mL	>60 µg/mL	>60 µg/mL	>60 µg/mL	>60 µg/mL	>60 µg/mL	>60 µg/mL	>60 µg/mL	>60 µg/mL	>60 µg/mL	>60 µg/mL	Cc1nc(-c2ccccn2)nc(NCCCCCCCCN)c1C(C)C [compound 65]	>60 µg/mL
3.75 µg/mL (≈ 10.1 µM)	30 µg/mL (≈ 81.2 µM)	>60 µg/mL	>60 µg/mL	>60 µg/mL	>60 µg/mL	>60 µg/mL	>60 µg/mL	>60 µg/mL	60 µg/mL (≈ 162 µM)	>60 µg/mL	*30 μg/mL	60 µg/mL (≈ 162 µM)	Cc1nc(-c2ccccn2)nc(NCCCCCCCCCN)c1C(C)C [compound 66]	>60 µg/mL
3.75 µg/mL (≈ 11 µM)	120 µg/mL (≈ 352 µM)	>60 µg/mL	60 µg/mL (≈ 176 µM)	3.75 µg/mL (≈ 11 µM)	*60 μg/mL	*15 μg/mL	>60 µg/mL	*60 μg/mL	7.5 µg/mL (≈ 22 µM)	15 µg/mL (≈ 44.1 µM)	<3.75 µg/mL	7.5 µg/mL (≈ 22 µM)	CCCCCCCCNc1nc(-c2ccccn2)nc(C)c1C(C)C [compound 69]	>60 µg/mL
